# According to patent US9006228B2 (Merck Sharp & Dohme Corp., priority 2011, dated 2015):
# Target: T1, human GPR119 (Homo sapiens, UniProt Q8TDV5)
# T1 sequence (Q8TDV5 1-308 limits assumed): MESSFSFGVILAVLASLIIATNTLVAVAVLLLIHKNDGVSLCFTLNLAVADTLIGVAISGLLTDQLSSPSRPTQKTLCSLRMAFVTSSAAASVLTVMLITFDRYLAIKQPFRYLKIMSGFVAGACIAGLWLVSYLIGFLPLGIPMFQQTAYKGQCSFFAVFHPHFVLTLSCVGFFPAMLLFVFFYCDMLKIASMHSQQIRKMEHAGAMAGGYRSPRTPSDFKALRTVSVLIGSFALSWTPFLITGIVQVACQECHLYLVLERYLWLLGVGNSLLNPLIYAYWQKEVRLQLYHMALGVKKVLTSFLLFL
# Assay: Measurement of GPR119 signaling (cAMP assay; LANCE kit or HTRF) in HEK293 cells stably transfected with human GPR119
# Format: cell-based
# Settings: agonist-stimulated cAMP in HEK293 cells expressing human GPR119
# Description: Measurement of GPR119 Signaling Using LANCE 384-Well cAMP Kit
# The adenylate cyclase assay was constructed following the LANCE™ cAMP Kit (Perkin Elmer, AD0264) instructions. […] The reaction was stopped by incubating with the supplied detection buffer containing the europium chelate of the Eu-SA/Biotin-cAMP tracer for 3 hours. The assay was performed in duplicate in a 384 well plate for duplicate plates. Fluorescence at 665 nm was measured using a PHERAstar instrument. Basal activity was determined using a DMSO control and maximum response was defined as cAMP stimulation produced by an internal agonist control. Standard cAMP concentrations were assayed concurrently for conversion of fluorescence signal to cAMP level. The data was analyzed using 4-parameter curve fit in Microsoft Excel.
# Measurement of GPR119 Signaling Using a Cyclic AMP (cAMP) Homogenous Time Resolved Fluorescence (HTRF) Assay
# Chinese hamster ovary (CHO) cell lines stably transfected with the permissive guanine nucleotide binding protein alpha 15 (Gα15) and murine GPR119 were maintained in DMEM media containing FBS, penicillin-streptomycin, puromycin, and G418 (geneticin). […] Agonist activation of the GPR119 receptor was measured in receptor transfected cells described above, treated with compounds of this invention, using a commercial homogenous time resolved fluorescence (HTRF) kit for measurement of cAMP (CisBio, Bedford, Mass.). The assay was performed in 96-well half-volume plates (murine) or 384-well plates (human) following the manufacturers instructions. Briefly, suspended cells were incubated with a dose titration of test compound at RT for 60 min, lysed, and incubated with HTRF reagents for an additional 60 min. The plate was read using an Envision multilabel reader (Perkin Elmer) adjusted to read time resolved fluorescence and the cAMP concentrations were extrapolated from a cAMP calibration curve. […] The concentration of test compound required to stimulate a half-maximal response (EC50), and efficacy as compared to an internal agonist control, was determined from a sigmoidal 4-parameter curve fit of the resulting plot of normalized activity versus compound concentration.
row,EC50,Compound
1,17 nM,"CCc1cnc(N2CCC([C@H]3C[C@H]3COCc3ccc(S(=O)(=O)CCO)cn3)CC2)nc1 [Example 88, 2-({6-[({(1R,2R)-2-[1-(5-ethylpyrimidin-2-yl)piperidin-4-yl]cyclopropyl}methoxy)methyl]pyridin-3-yl}sulfonyl)ethanol]"
2,0.16 nM,CCc1cnc(N2CCC([C@H]3C[C@H]3[C@@H](COC)OCc3ccc(S(=O)(=O)CC)cc3)CC2)nc1 [Example 67]
3,5.6 nM,"CCc1cnc(N2CCC([C@H]3C[C@H]3COCc3ccc(-n4cnnn4)cn3)CC2)nc1 [Example 133, 2-(4-((1R,2R)-2-(((5-(1H-tetrazol-1-yl)pyridin-2-yl)methoxy)methyl)cyclopropyl)piperidin-1-yl)-5-ethylpyrimidine]"
4,0.6 nM,"CCc1cnc(N2CCC([C@H]3C[C@H]3COCc3ccc(-c4ccnnc4)cc3F)CC2)nc1 [Example 102, 4-{4-[({(1R,2R)-2-[1-(5-ethylpyrimidin-2-yl)piperidin-4-yl]cyclopropyl}methoxy)methyl]-3-fluorophenyl}pyridazine]"
5,2.3 nM,"CCc1cnc(N2CCC([C@H]3C[C@H]3COCc3ccc(-c4cnccn4)cc3F)CC2)nc1 [Example 109, 2-{4-[({(1R,2R)-2-[1-(5-ethylpyrimidin-2-yl)piperidin-4-yl]cyclopropyl}methoxy)methyl]-3-fluorophenyl}pyrazine]"
6,1.1 nM,"CC(C)(C)OC(=O)N1CCC([C@H]2C[C@H]2COCc2ccc(S(C)(=O)=O)c(F)c2)CC1 [Example 33, tert-butyl 4-[(1R,2R)-2-({[3-fluoro-4-(methylsulfonyl)benzyl]oxy}methyl)cyclopropyl]piperidine-1-carboxylate]"
7,5.16 nM,"COCc1cnc(N2CCC([C@H]3C[C@H]3COCc3ccc(CC(=O)N4CCC4)cc3F)CC2)nc1 [Example 145, 1-(azetidin-1-yl)-2-(3-fluoro-4-((((1R,2R)-2-(1-(5-(methoxymethyl)pyrimidin-2-yl)piperidin-4-yl)cyclopropyl)methoxy)methyl)phenyl)ethanone]"
8,8.2 nM,"CS(=O)(=O)c1ccc(COC[C@@H]2C[C@@H]2C2CCN(C(=O)OC3CCC3)CC2)cc1 [Example 12, cyclobutyl 4-[(1R,2R)-2-({[4-(methylsulfonyl)benzyl]oxy}methyl)cyclopropyl]piperidine-1-carboxylate]"
9,0.6 nM,"CS(=O)(=O)c1c(F)cc(COC[C@@H]2C[C@@H]2C2CCN(c3ncc(Cl)cn3)CC2)cc1F [Example 45, 5-chloro-2-{4-[(1R,2R)-2-({[3,5-difluoro-4-(methylsulfonyl)benzyl]oxy}methyl)cyclopropyl]piperidin-1-yl}pyrimidine]"
10,0.8 nM,"CCc1cnc(N2CCC([C@H]3C[C@H]3COCc3ccc(-c4ccc(OC)nn4)cc3F)CC2)nc1 [Example 101, 3-{4-[({(1R,2R)-2-[1-(5-ethylpyrimidin-2-yl)piperidin-4-yl]cyclopropyl}methoxy)methyl]-3-fluorophenyl}-6-methoxypyridazine]"
11,5.8 nM,"CS(=O)(=O)c1ccc(COC[C@@H]2C[C@@H]2C2CCN(c3ncc(F)cn3)CC2)cc1 [Example 16, 5-fluoro-2-{4-[(1R,2R)-2-({[4-(methylsulfonyl)benzyl]oxy}methyl)cyclopropyl]piperidin-1-yl}pyrimidine]"
12,11.7 nM,Cc1cnc(N2CCC([C@H]3C[C@H]3COCc3ccc(S(=O)(=O)CCO)cc3F)CC2)nc1 [Example 82]
13,4.3 nM,Cc1cnc(N2CCC([C@H]3C[C@H]3COCc3ccc(S(C)(=O)=O)cc3F)CC2)nc1 [Example 74]
14,0.6 nM,CCc1cnc(N2CCC([C@H]3C[C@H]3COCc3ccc(S(=O)(=O)CC[C@H](C)O)cc3)CC2)nc1 [Example 64]
15,0.3 nM,"CCc1cnc(N2CCC([C@H]3C[C@H]3COCc3ccc(S(=O)(=O)CC)cc3)CC2)nc1 [Example 57, 5-ethyl-2-{4-[(1R,2R)-2-({[4-(ethylsulfonyl)benzyl]oxy}methyl)cyclopropyl]piperidin-1-yl}pyrimidine]"
16,3.1 nM,"CCS(=O)(=O)c1ccc(COC[C@@H]2C[C@@H]2C2CCN(c3nc(C(C)C)no3)CC2)cc1 [Example 26, 4-[(1R,2R)-2-({[4-(ethylsulfonyl)benzyl]oxy}methyl)cyclopropyl]-1-(3-isopropyl-1,2,4-oxadiazol-5-yl)piperidine]"
17,9.8 nM,CCc1cnc(N2CCC([C@H]3C[C@H]3COCc3ccc(-c4cnccn4)cc3)CC2)nc1 [Example 123]
18,0.19 nM,CCc1cnc(N2CCC([C@H]3C[C@H]3[C@@H](COC)OCc3ccc(S(C)(=O)=O)cc3)CC2)nc1 [Example 66]
19,0.8 nM,"CCS(=O)(=O)c1ccc(COC[C@@H]2C[C@@H]2C2CCN(c3nc(C4CCC4)no3)CC2)cc1 [Example 32, 1-(3-cyclobutyl-1,2,4-oxadiazol-5-yl)-4-[(1R,2R)-2-({[4-(ethylsulfonyl)benzyl]oxy}methyl)cyclopropyl]piperidine]"
20,20 nM,"COC(=O)c1cnc(N2CCC([C@H]3C[C@H]3COCc3ccc(S(C)(=O)=O)cc3)CC2)nc1 [Example 17, methyl 2-{4-[(1R,2R)-2-({[4-(methylsulfonyl)benzyl]oxy}methyl)cyclopropyl]piperidin-1-yl}pyrimidine-5-carboxylate]"
21,1.2 nM,"CCc1cnc(N2CCC([C@H]3C[C@H]3COCc3ccc(S(=O)(=O)C4CC4)cc3)CC2)nc1 [Example 56, 2-{4-[(1R,2R)-2-({[4-(cyclopropylsulfonyl)benzyl]oxy}methyl)cyclopropyl]piperidin-1-yl}-5-ethylpyrimidine]"
22,12 nM,"CCc1cnc(N2CCC([C@H]3C[C@H]3COCc3ccc(-c4ncco4)cc3)CC2)nc1 [Example 54, 5-ethyl-2-{4-[(1R,2R)-2-({[4-(1,3-oxazol-2-yl)benzyl]oxy}methyl)cyclopropyl]piperidin-1-yl}pyrimidine]"
23,14.8 nM,"CC(C)(C)OC(=O)N1CCC([C@H]2C[C@H]2COCc2cc(F)c(S(C)(=O)=O)c(F)c2)CC1 [Example 44, tert-butyl 4-[(1R,2R)-2-({[3,5-difluoro-4-(methylsulfonyl)benzyl]oxy}methyl)cyclopropyl]piperidine-1-carboxylate]"
24,3.56 nM,"COCc1cnc(N2CCC([C@H]3C[C@H]3COCc3ccc(CC(=O)N4CC(F)C4)cc3F)CC2)nc1 [Example 148, 2-(3-fluoro-4-((((1R,2R)-2-(1-(5-(methoxymethyl)pyrimidin-2-yl)piperidin-4-yl)cyclopropyl)methoxy)methyl)phenyl)-1-(3-fluoroazetidin-1-yl)ethanone]"
25,2.4 nM,"CC(C)(C)OC(=O)N1CCC([C@H]2C[C@H]2COCc2cc(F)c(C(=O)C3CC3)c(F)c2)CC1 [Example 52, tert-butyl 4-[(1R,2R)-2-({[4-(cyclopropylcarbonyl)-3,5-difluorobenzyl]oxy}methyl)cyclopropyl]piperidine-1-carboxylate]"
26,3.2 nM,"CS(=O)(=O)c1c(F)cc(COC[C@@H]2C[C@@H]2C2CCN(c3ncc(F)cn3)CC2)cc1F [Example 47, 2-{4-[(1R,2R)-2-({[3,5-difluoro-4-(methylsulfonyl)benzyl]oxy}methyl)cyclopropyl]piperidin-1-yl}-5-fluoropyrimidine]"
27,1 nM,"CCc1cnc(N2CCC([C@H]3C[C@H]3COCc3ccc(-c4ccc(C)nn4)cc3F)CC2)nc1 [Example 100, 3-{4-[({(1R,2R)-2-[1-(5-ethylpyrimidin-2-yl)piperidin-4-yl]cyclopropyl}methoxy)methyl]-3-fluorophenyl}-6-methylpyridazine]"
28,10 nM,"CCCc1cnc(N2CCC([C@H]3C[C@H]3COCc3ccc(S(=O)(=O)CCO)cn3)CC2)nc1 [Example 89, 2-({6-[({(1R,2R)-2-[1-(5-propylpyrimidin-2-yl)piperidin-4-yl]cyclopropyl}methoxy)methyl]pyridin-3-yl}sulfonyl)ethanol]"

row,Compound,EC50
1,"CC1(OC(=O)N2CCC([C@H]3C[C@H]3COCc3ccc(-n4cnnn4)cc3F)CC2)CC1 [Example 136, 1-methylcyclopropyl 4-((1R,2R)-2-((2-fluoro-4-(1H-tetrazol-1-yl)benzyloxy)methyl)cyclopropyl)piperidine-1-carboxylate]",4.8 nM
